Series [1] can be described thus: Effect of compounds on host cell viability (MTT). The class given is cell-based. Conditions: human. Put shortly: (§1)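 THP-1 cells were differentiated with 150 nM PMA for 72 h, then exposed to compounds at 1–50 μM for 24 h; selected compounds were also run at 1–300 μM for 72 h. MTT at 0.5 mg/mL was added for 2 h at 37 °C, and formazan absorbance was read at 560 nm minus 670 nm.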

The next series deals with THP-1 macrophages. As to the kind of experiment: Effect of compounds on host cell viability (MTT). The class given is cell-based. Put shortly:
as §1

The subject of series [2] is intracellular L. donovani amastigotes. The experiment in a line: Image-based (Giemsa staining) evaluation of intracellular anti-leishmanial activity in bone marrow derived macrophages. The class given is cell-based, Leishmania donovani. Conditions: Leishmania donovani, Macrophage. The procedure: Bone marrow derived macrophages (BMDMs) were isolated from BALB/c mice and cultured as previously described. […] Completely differentiated BMDMs are obtained after 7 days of culture with media change every 2 days. Harvested cells were seeded onto 10 mm glass cover slips at 5 x 10^5 cells/ well of a 24 well plate in DMEM media (without LCM) and allowed to adhere overnight. […] After infection, cells were washed three times with fresh media to remove extracellular promastigotes and treated with compounds for a 72-hour incubation. BMDM cells were then washed with phosphate buffered saline, fixed with ice-cold methanol, and stained with Giemsa (5% v/v in water). The cover slips with stained cells are mounted onto glass slides and imaged on EVOS XL (100X, Thermo Fisher Scientific). Leishmania amastigotes per 100 macrophages were determined in a blinded manner.

Series [3] has as its system extracellular L. mexicana promastigotes. The experiment in a line: Effect of compounds on promastigote viability (resazurin assay). The class given is cell-based, Leishmania mexicana. The protocol:
The effect of compounds on extracellular promastigotes was evaluated using a resazurin-based assay as described previously. In short, late log phase Leishmania promastigotes were seeded in a 96 well plate at 1 x 10^5 parasites per well and treated with drugs (0.5 – 200 μM) for 72 hours at 25°C. Ten microliters of resazurin (0.02% w/v) were added to the treated parasites to achieve a final concentration of 0.002% w/v and incubated for 24 hours. Viability of the promastigotes was assessed by fluorescence (excitation 544 nm, emission 590 nm, SpectraMax M2, Molecular Devices).

Series [4] deals with intracellular L. donovani in WT and Lys K/O BMDMs. As to the kind of experiment: 197 target validation: Giemsa staining in BMDMs from wild-type and lysozyme knockout mice. The class given is cell-based, Leishmania donovani. Conditions: WT vs Lys K/O BMDMs. An excerpt: B6.129P2-Lyz2^tm1(cre)Ifo/J mice[23] (stock #004781, herein termed ‘Lys K/O’) were obtained from Jackson Laboratory. This strain has a nuclear-localized Cre recombinase inserted into the first coding ATG of the lysozyme 2 gene (Lyz2) which eliminates endogenous Lyz2 gene function. Wildtype C57BL6/J mice (stock #000664) were obtained as a control.
Bone marrow derived macrophages (BMDMs) were isolated from both mice and cultured as described above in “Image-based Evaluation of Intracellular Anti-Leishmanial Activity”. BMDMs were seeded onto glass cover slips, infected with LV82 L. donovani at a multiplicity of infection of 1:10. Cells were washed to remove extracellular promastigotes and treated with compounds (197, amphotericin B) for a 72-hour incubation. BMDM cells were then washed with phosphate buffered saline, fixed with ice-cold methanol, and stained with Giemsa (5% v/v in water). The cover slips with stained cells are mounted onto glass slides and imaged on EVOS XL (100X, Thermo Fisher Scientific). Leishmania amastigotes per 100 macrophages were determined in a blinded manner.

The target in a further series is T1, lysozyme (Homo sapiens, UniProt P61626).
T1 construct: endogenous in cells; host or cells: THP-1 cells differentiated with PMA and infected with L. mexicana promastigotes; cell lysate
T1 sequence (P61626 19-148): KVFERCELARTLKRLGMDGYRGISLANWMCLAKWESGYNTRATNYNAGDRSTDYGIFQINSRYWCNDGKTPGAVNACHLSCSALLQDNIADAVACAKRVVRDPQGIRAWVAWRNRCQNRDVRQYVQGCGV
The experiment in a line: Affinity capture with 197-bead in Leishmania infected macrophage lysate. The class given is binding. Conditions: 197-bead vs control bead. The procedure:
To generate cell lysate, ten million THP-1 cells were plated overnight in a 10cm dish, then differentiated with 150 nM phorbol 12-myristate 13-acetate (PMA) for 72 hours. The resulting macrophages were infected with L. mexicana promastigotes at a multiplicity of infection of 1:10 and incubated for 18 hours. After infection, cells were washed three times with PBS to remove extracellular promastigotes. Cells were then collected by scraping and pelleted with centrifugation. The cell pellet was resuspended in cell buffer (50mM Tris-HCl, 150mM NaCl, 2mM EDTA, 0.5% triton-x-100) and subjected to five freeze-thaw cycles. Samples were centrifuged 14,000g x 10 minutes to remove cellular debris. Protein concentration of supernatant was determined by BCA assay and cell lysate was stored at −80°C until further use.
Functionalized agarose beads were made as follows. NHS activated agarose beads were washed three times to remove acetone and resuspended in PBS to create a slurry. 494 (197 with ligation chemical handle) was prepared in 0.3 mL at 25mM in DMSO and 1.7 mL PBS was added to 1 mL of agarose slurry for a final volume of 3 mL at a concentration of 2.5mM (10% v/v DMSO). […]
500 μg cell lysate was incubated with 200 μL slurry at a final volume of 1 mL for 1 hr. […] Peptides were extracted, acidified, desalted using C18 spin columns, and analyzed by LC-MS/MS using Thermo Easy nLC 1200-QExactive HF. […]

Like-named read-outs stand apart in the source and are kept apart here.

Consider `O=C(CNCc1cccc(F)c1)Nc1ccc(-n2cc(C(F)(F)F)nc2-c2ccc(-c3ccc(C(F)(F)F)cc3)cc2)cc1` [Compound 197], for which, in series [1], the CC50 at 24 h was more than 50 µM and the CC50 at 72 h was more than 300 µM. The cytotoxic concentration (CC50) in the series on THP-1 macrophages is more than 300 µM. The “reduction in macrophage viability” value in the series with THP-1 macrophages (72hr incubation up to 300μM) is “Neither compound had any reduction”. Moreover, the concentration for half-maximal inhibition (IC50) in series [2] (72 h, Giemsa staining, 72-hour incubation, read-out: Intracellular L. donovani amastigotes IC50) was 1.1 µM. Besides, the IC50 in series [2] (Giemsa staining (Table 3), read-out: L. donovani Intracellular amastigotes IC50) is less than 2 µM. For the same molecule, the “effect on L. mexicana extracellular promastigote viability” value in series [3] is listed as “no effect”. Moreover, the MIC50 in series [3] (Leishmania mexicana, 72-hour incubation) was more than 200 µM. For the same molecule, in series [4], the “anti-leishmanial activity in Lys K/O BMDMs” value is reported as “notably decreased”. Besides, the “affinity capture abundance of lysozyme, Log2 fold change” value on lysozyme turned out to be 6.57.

These data come from article doi:10.1101/2025.11.04.686469, “Discovery of Host-Directed Small Molecules with Broad Anti-Leishmanial Efficacy” (bioRxiv, 2025).
